The values below come from publication PMC6518372, “An enzymatically stable GIP/xenin hybrid peptide restores GIP sensitivity, enhances beta cell function and improves glucose homeostasis in high-fat-fed mice” (Diabetologia, 2016).

Where a SMILES comes first, the peptide text is derived from it. [ ]: non-standard residue; d: D form.

Series [1] concerns the target purified porcine DPP-4 (Sus scrofa, UniProt P22411). The experiment in a line: DPP-4 degradation / in vitro DPP-4 half-life. The note with it: 20 μg peptide, 5 mU purified DPP-4, up to 12 h, HPLC. As for the experimental part: Peptide (20 μg) DPP-4 degradation profiles (5 μl purified DPP-4, 5 mU; Sigma-Aldrich, UK) were assessed as described previously.
For calculation of experimental molecular masses, peptide samples (1 µg) were mixed with α-cyano-4-hydroxycinnamic acid (1 µg) and applied to a Voyager-DE BioSpectrometry Workstation and mass-to-charge (m/z) ratio verses peak intensity recorded by MALDI-TOF mass spectrometry. DPP-4 half-life was assessed by incubating peptides (37°C in 50 mmol/L TEA-HCl; pH 7.8) with 5 mU purified porcine DPP-4 for 0, 1, 2, 4, 8 and 12 h. Degradation profiles were obtained using rp-HPLC analysis and HPLC peak area data used to calculate percentage intact peptide remaining at each time point.

For series [2], the system named is BRIN-BD11 cells. The series is described as follows: In vitro insulin secretion from BRIN-BD11 cells. The settings on record: peptide 10^−6 mol/l, antagonist 10^−6 mol/l, 5.6 mmol/l glucose, 20 min. The series is classed as cell-based, rat. As for the experimental part: (§1) BRIN-BD11 cells were used to assess the insulin-releasing activity of test peptides, as described previously. This hybrid cell line (ECACC 10033003) was originally generated in-house by electrofusion of a primary culture of New England Deaconess Hospital (NEDH) rat pancreatic islets with RINm5F (a cell line derived from an NEDH rat insulinoma), and has been mycoplasma eradicated. For details of experimental conditions please see ESM Methods. Insulin was measured by radioimmunoassay. We assessed the impact of GIP and neurotensin receptors on (DAla^2)GIP/xenin-8-Gln-induced insulin secretion in BRIN-BD11 cells. Cells were incubated in 5.6 mmol/l glucose with (DAla^2)GIP/xenin-8-Gln (10^−6 mol/l) alone or in combination with the GIP receptor antagonist GIP(6-30)Cex-K^40[Pal] [32] (where Pal is palmitate) or the neurotensin receptor antagonist SR142948A (Sigma, Poole, UK), and insulin secretion determined as described above. In addition, to determine mechanisms, intracellular Ca^2+ was also measured in BRIN-BD11 cells following treatment with test peptides (10^−6 mol/l), using a Flexstation scanning fluorometer (FLIPR Calcium 5 assay kit; Molecular Devices, Sunnyvale, CA, USA), as described previously.
In vitro insulin release studies Cells were seeded at a density of 150,000 cells/well in 24-well plates (Nunc, Roskilde, Denmark) and allowed to attach overnight at 37 °C. Culture medium was removed and cells were pre-incubated in Krebs–Ringer bicarbonate buffer (containing 0.5% (w/v) BSA, pH 7.4) supplemented with 1.1 mmol/l glucose for 40 min at 37 °C. Following the pre-incubation, experiments (n=8) were performed in presence of glucose (5.6 or 16.7 mmol/l) with a […]
incubations, aliquots of assay buffer were collected from each well and stored at -20 °C prior to […]
Acute in vivo effects in lean mice For food intake studies, fasted (18 h) mice were given intraperitoneal (i.p) injections of peptides at a dose of 25, 100 or 250 nmol/kg bw. Mice were then allowed free access to normal chow for 180 mins and cumulative food intake measured. […]

Series [3] relates to BRIN-BD11 cells. The series is described as follows: Intracellular Ca2+ in BRIN-BD11 cells (FLIPR Calcium 5). The series is classed as cell-based, rat. The note with it: peptide 10^−6 mol/l, 5.6 mmol/l glucose, 5 min, AUC 0–300 s. As for the experimental part:
as §1

Series [4] deals with lean control mice. The series is described as follows: Acute cumulative food intake in lean mice. The settings on record: 250 nmol/kg i.p., 18 h fasted lean mice, 120 min post injection, vs saline. Format: in vivo, mouse. As for the experimental part: (§2) Animals Acute animal studies were conducted in male NIH Swiss mice (12-14 weeks old, Harlan Ltd, UK) maintained on a standard rodent maintenance diet (10% fat, 30% protein and 60% carbohydrate, Trouw Nutrition, UK). Prior to commencement of longer term studies, all animals, except lean controls that continued on rodent maintenance diet, were maintained on a high-fat diet (45% fat, 35% carbohydrate and 20% protein, Special Diet Services, UK) for 12 weeks. This diet […]
(§3) individually in an air-conditioned room at 22 ± 2 °C with a 12 h light:12 h dark cycle and had free access to food and water. Animal experiments were carried out in accordance with the UK Animals (Scientific Procedures) Act 1986.
(§4) Acute in vivo effects in lean mice For food intake studies, fasted (18 h) mice were given intraperitoneal (i.p) injections of peptides at a dose of 25, 100 or 250 nmol/kg bw. Mice were then allowed free access to normal chow for 180 mins and cumulative food intake measured. For glucose homeostasis and […]

Series [5] relates to lean control mice. The series is described as follows: Acute glucose-lowering and insulin-releasing effects in lean mice. Format: in vivo, mouse. The settings on record: 25 nmol/kg i.p. with glucose 18 mmol/kg, non-fasted lean mice, vs glucose alone. As for the experimental part: Specific information on acute feeding, glucose homeostasis and insulin-secretory studies is given in ESM Methods. To assess the impact of GIP and neurotensin receptor activation on (DAla^2)GIP/xenin-8-Gln-induced glucose-lowering and insulin-secretory actions in mice, (DAla^2)GIP/xenin-8-Gln was administered by i.p. injection (25 nmol/kg body weight) in combination with glucose (18 mmol/kg) in the absence and presence of GIP(6-30)Cex-K^40[Pal] and SR142948A (both at 25 nmol/kg), and glucose and insulin were measured as described above. In a final series of experiments, test peptides (25 nmol/kg) or saline vehicle (0.9% wt/vol. NaCl) were injected 4 h before a glucose load (18 mmol/kg) in non-fasted mice and blood glucose and plasma insulin measured as above. […]
as §2, §3, §4

Series [6] relates to lean control mice. The experiment in a line: Persistent glucose-lowering and insulin-releasing effects, peptide 4 h before glucose load. The settings on record: 25 nmol/kg injected 4 h before i.p. glucose load 18 mmol/kg, non-fasted lean mice, vs saline. The series is classed as in vivo, mouse. As for the experimental part: Specific information on acute feeding, glucose homeostasis and insulin-secretory studies is given in ESM Methods. To assess the impact of GIP and neurotensin receptor activation on (DAla^2)GIP/xenin-8-Gln-induced glucose-lowering and insulin-secretory actions in mice, (DAla^2)GIP/xenin-8-Gln was administered by i.p. injection (25 nmol/kg body weight) in combination with glucose (18 mmol/kg) in the absence and presence of GIP(6-30)Cex-K^40[Pal] and SR142948A (both at 25 nmol/kg), and glucose and insulin were measured as described above. In a final series of experiments, test peptides (25 nmol/kg) or saline vehicle (0.9% wt/vol. NaCl) were injected 4 h before a glucose load (18 mmol/kg) in non-fasted mice and blood glucose and plasma insulin measured as above.

purified porcine DPP-4, sequence (P22411 whole entry): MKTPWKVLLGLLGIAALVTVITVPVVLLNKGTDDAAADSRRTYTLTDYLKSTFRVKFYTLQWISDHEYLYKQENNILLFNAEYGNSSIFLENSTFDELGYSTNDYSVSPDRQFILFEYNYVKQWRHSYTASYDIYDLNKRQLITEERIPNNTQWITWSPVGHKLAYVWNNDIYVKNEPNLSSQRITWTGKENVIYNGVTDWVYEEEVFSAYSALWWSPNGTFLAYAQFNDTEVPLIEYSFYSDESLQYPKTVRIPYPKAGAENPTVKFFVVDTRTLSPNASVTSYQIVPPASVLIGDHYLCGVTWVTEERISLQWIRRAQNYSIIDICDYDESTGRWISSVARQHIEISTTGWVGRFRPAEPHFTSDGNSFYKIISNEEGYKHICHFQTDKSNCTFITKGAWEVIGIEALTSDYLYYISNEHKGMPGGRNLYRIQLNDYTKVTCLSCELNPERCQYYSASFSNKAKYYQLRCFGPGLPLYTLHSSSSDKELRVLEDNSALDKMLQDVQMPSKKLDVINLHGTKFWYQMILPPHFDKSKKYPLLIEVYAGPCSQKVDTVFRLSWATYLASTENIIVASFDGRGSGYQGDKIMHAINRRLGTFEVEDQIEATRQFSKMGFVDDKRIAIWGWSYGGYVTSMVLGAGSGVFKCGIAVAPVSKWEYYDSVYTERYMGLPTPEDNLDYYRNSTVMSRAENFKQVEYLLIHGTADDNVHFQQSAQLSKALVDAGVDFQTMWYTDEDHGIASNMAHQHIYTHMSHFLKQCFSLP

For `CC[C@H](C)[C@H](NC(=O)[C@H](CO)NC(=O)[C@H](Cc1ccc(O)cc1)NC(=O)[C@H](CC(=O)O)NC(=O)[C@H](CO)NC(=O)[C@@H](NC(=O)[C@H](Cc1ccccc1)NC(=O)[C@@H](NC(=O)CNC(=O)[C@H](CCC(=O)O)NC(=O)[C@@H](C)NC(=O)[C@@H](N)Cc1ccc(O)cc1)[C@@H](C)O)[C@@H](C)CC)C(=O)N[C@@H](C)C(=O)N[C@@H](CCSC)C(=O)N[C@@H](Cc1c[nH]cn1)C(=O)N1CCC[C@H]1C(=O)N[C@@H](CCC(N)=O)C(=O)N[C@@H](CCC(N)=O)C(=O)N1CCC[C@H]1C(=O)N[C@@H](Cc1c[nH]c2ccccc12)C(=O)N[C@H](C(=O)N[C@@H](CC(C)C)C(=O)O)[C@@H](C)CC` [(DAla^2)GIP/xenin-8-Gln] (H-Y[dA]EGTFISDYSIAMHPQQPWIL-OH), the “Stability when incubated in the presence of DPP-4” value in series [1] is given as “remained fully intact”.

On to `CC[C@H](C)[C@H](NC(=O)[C@H](Cc1c[nH]c2ccccc12)NC(=O)[C@@H]1CCCN1C(=O)[C@H](CCC(N)=O)NC(=O)[C@H](CCC(N)=O)NC(=O)[C@@H]1CCCN1C(=O)[C@@H](N)Cc1c[nH]cn1)C(=O)N[C@@H](CC(C)C)C(=O)O` [xenin-8-Gln] (H-HPQQPWIL-OH), for which the “Peptide-mediated insulin secretion in presence of neurotensin receptor antagonist SR142948A” value in series [2] is recorded as “similar, but less prominent, effect”. Besides, in series [3], the “Effect on intracellular Ca^2+ concentrations” value was “Neither, (DAla^2)GIP, xenin-8-Gln nor (DAla^2)GIP/xenin-8-Gln had any effect”. Further, in series [4], the Cumulative food intake entry was “significant (p < 0.05) reductions in food intake”. In addition, the Blood glucose result in series [5] (30 min post injection) is “significantly (p < 0.05) lowered blood glucose values”. In series [5], the “Overall AUC blood glucose” value was “significantly (p < 0.05) decreased overall AUC blood glucose values”. In series [6], the “Overall AUC for blood glucose after glucose challenge” value is listed as “devoid of glucose-lowering or insulin-releasing effects” and the “Plasma insulin AUC after glucose challenge” value is given as “devoid of glucose-lowering or insulin-releasing effects”.
